Assay results as given in PubChem BioAssay AID504726 (Broad Institute, 2011).
Active and inactive are the calls of the source.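 Rule for the calls: active = fitted half-maximal concentration for a cytotoxic signal drop no higher than ten times the top valid dose tested; inconclusive = flat curve between -70 and -30 percent, or an unreliable fit; inactive = flat within 30 percent, signal rise, or potency beyond limit.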

Assay: HeLa cell cytotoxicity, dose response, cytotoxicity control, 24 h, cherry-picked samples (AID 504726);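 note: 0% = DMSO neutral controls and -100% = mitoxantrone positive controls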
Settings: HeLa viability, CellTiter-Glo ATP luminescence, 24 h; at 35 µM (top of the series)

| Compound | activity change, negative = cytotoxicity |
| --- | --- |
| COc1ccc(N(CC(=O)NCc2ccc3c(c2)OCO3)C(=O)c2csnn2)cc1 | 3.04% (inactive) |
| O=C(CCN1C(=O)/C(=C/c2ccco2)SC1=S)Nc1ccc(C(=O)O)c(O)c1 | 2.73% (inactive) |
| CC(=O)Nc1ccc(S(=O)(=O)Nc2nc3ccccc3nc2Nc2ccc(C(=O)O)c(O)c2)cc1 | -13.1% (inactive) |
| COc1ccc(-c2nc(C(=O)O)cs2)cc1OC | -5.71% (inactive) |
| O=C(O)CC1(CC(=O)NCc2ccncc2)CCCCC1 | -9.28% (inactive) |
| CCCn1c(SCC(=O)NCc2cccs2)nc2c1c(=O)n(C)c(=O)n2C | 7.8% (inactive) |
| CCCCN(C(=O)CSc1nnc(-c2ccc(Cl)cc2)o1)c1c(N)n(CC(C)C)c(=O)[nH]c1=O | 5.27% (inactive) |
| CCOC(=O)c1ccc[n+](CC(=O)c2ccc(OC)cc2)c1 | -1.73% (inactive) |
| O=C(CN1C(=O)NC2(CCCC2)C1=O)Nc1ccccc1-c1ccccc1 | -3.7% (inactive) |
| O=C(O)c1[nH]c2ccccc2c1C(c1cc(Cl)cc([N+](=O)[O-])c1O)c1c(C(=O)O)[nH]c2ccccc12 | -6.4% (inactive) |
| Nc1cccc(N2C(=O)c3cccc4c(N)ccc(c34)C2=O)c1 | 6.74% (inactive) |
| O=C1C=C(c2ccoc2)N2CCC[C@H]2C1 | -3.65% (inactive) |
| COCCNC(=O)Nc1ccc2nc(-c3ccco3)c(-c3ccco3)nc2c1 | -18.1% (inactive) |
| C/C(=N/NC(=O)c1cc(O)c(O)c(O)c1)c1ccc([N+](=O)[O-])cc1 | -1.35% (inactive) |
| Nc1nc(C(F)(F)F)cc(=O)[nH]1 | -5.29% (inactive) |
| CCCCn1c(N)c(N(CCOC)C(=O)c2cc(C)oc2C)c(=O)[nH]c1=O | -6.37% (inactive) |
| CCN(CC)c1ccc2cc(S(=O)(=O)c3ccc(C)cc3)c(=O)oc2c1 | -3.69% (inactive) |
| COc1ccc(NC(=O)NS(=O)(=O)c2ccc(C)cc2)cn1 | -5.07% (inactive) |
| CC(C)Cn1c(N)c(C(=O)CSc2nnc(-c3ccco3)n2C)c(=O)n(C)c1=O | -1.08% (inactive) |
| Cn1c(=O)oc2cc(S(=O)(=O)CCC(=O)N3CCN(c4ccccc4F)CC3)ccc21 | -1.08% (inactive) |
| COc1cc(C(=O)O)cc(NC(=O)c2ccco2)c1OC | -8.57% (inactive) |
| CC1Cc2ccccc2N1C(=O)CCS(=O)(=O)c1cccs1 (stereo unspecified) | -6.91% (inactive) |

| Compound | activity change, negative = cytotoxicity |
| --- | --- |
| Cc1nc2ccccc2n2c(O)c(CC(=O)O)cc12 | -13.5% (inactive) |
| CC(Oc1ccccc1)c1nnc(N)s1 (stereo unspecified) | -3.11% (inactive) |
| O=C(/C=C\c1ccccc1)Oc1cccc2cccnc12 | -9.78% (inactive) |
| O=S(=O)(O)c1cc(O)c2cc(Nc3ccccc3)ccc2c1 | -1.35% (inactive) |
| COc1ccc(NC(=O)CO/N=C2/CCCc3nonc32)c(OC)c1 | -3.9% (inactive) |
| O=C(O)c1cccc(-n2cccc2/C=C2/NC(=O)N(c3ccc(Cl)cc3)C2=O)c1 | 0.035% (inactive) |
| Cc1ccccc1NC(=S)NC(C)CCc1ccccc1 (stereo unspecified) | -9.6% (inactive) |
| CCn1c(=O)c(C(=O)NCCN2CCCCC2)c(O)c2ccccc21 | 1.6% (inactive) |
| CC1CCCN(C(=O)C(=O)c2cn(CC(=O)N3CCCCCC3)c3ccccc23)C1 (stereo unspecified) | -6.83% (inactive) |
| CCCCc1ccc(C(=O)O)nc1 | -11.4% (inactive) |
| O=C(O)CCCCCn1c(SCC(=O)c2ccc(O)c(O)c2)nc2ccsc2c1=O | -16.5% (inactive) |
| CCOC(=O)c1c(/N=C/c2c(O)n(-c3cccc(C)c3)c(=O)[nH]c2=O)sc2c1CCCC2 | -22.9% (inactive) |
| O=C(O)c1ccc(NS(=O)(=O)c2ccc3c(c2)C2C=CCC2C(c2ccccc2F)N3)cc1 (stereo unspecified) | -8.24% (inactive) |
| COc1ccc(NC(=O)COC(=O)c2c(-c3ccccc3)noc2C)cc1 | 6.45% (inactive) |
| NNC(=O)CC1=NNC(=O)C1 | -0.701% (inactive) |
| Cn1c2ccccc2c2cnn(CC(=O)Nc3cccc(F)c3)c(=O)c21 | -9.52% (inactive) |
| CC(C)Cc1nc(SCC(=O)Nc2nnc(CC(C)C)s2)n[nH]1 | -15% (inactive) |
| CC(C)(C)OC(=O)C[C@@H]1C/C=C\C[C@H](CC(=O)N(CCO)Cc2ccccc2)C(=O)N[C@@H](c2ccccc2)COC1=O | -9.09% (inactive) |
| O=C(/C=N/NC(=O)c1ccc(Cl)cc1Cl)c1ccccc1 | 1.59% (inactive) |
| COc1cccc(OC)c1C(=O)Nc1cc(C)on1 | 0.727% (inactive) |
| CCOc1ccc(-n2c(Cc3cc(=O)[nH]c(=O)[nH]3)nnc2SCc2cccnc2)cc1 | -1.5% (inactive) |
| CCc1noc(C)c1C(=O)NCCc1c[nH]c2ccccc12 | -12.2% (inactive) |

| Compound | activity change, negative = cytotoxicity |
| --- | --- |
| COc1cc(NC(=O)c2ccc(CNc3c(N4CCCC4)c(=O)c3=O)cc2)cc(OC)c1OC | -7.17% (inactive) |
| CC1CC(C)(C)NC(=S)N1CC(=O)N(C)Cc1ccccc1 (stereo unspecified) | -2.63% (inactive) |
| COc1cc(-c2ccc(Nc3ccccc3C(=O)O)c(OC)c2)ccc1Nc1ccccc1C(=O)O | -14.8% (inactive) |
| O=C(N/N=C/c1ccc(N2CCOCC2)cc1)c1ccccn1 | -14.2% (inactive) |
| CCn1c(SCc2nc3sc(C(=O)O)c(C)c3c(=O)[nH]2)nc2ccccc21 | -9.24% (inactive) |
| CC(C)CN(C(=O)CSc1nncn1C)C1CCS(=O)(=O)C1 (stereo unspecified) | 4.85% (inactive) |
| N#CCCN(CCC#N)C(=O)C1c2ccccc2Oc2ccccc21 | -3.39% (inactive) |
| CSc1n[nH]c(=O)n1-c1cccc(Cl)c1 | 12.8% (inactive) |
| CC(Sc1nc(-c2ccco2)nc2c1c(=O)n(C)c(=O)n2C)C(=O)O (stereo unspecified) | -11% (inactive) |
| CCC(Sc1ncccc1C(=O)O)C(=O)N1CCCC1 (stereo unspecified) | 3.53% (inactive) |
| Cc1noc(C)c1-c1nc(CSc2ccccc2)no1 | -16.7% (inactive) |
| COc1cccc(/C=N/NC(=O)C(=O)NCc2cccnc2)c1O | -7.2% (inactive) |
| Nc1ccc(C(=O)Nc2ccc3c(O)cc(S(=O)(=O)O)cc3c2)cc1 | -4.38% (inactive) |
| O=C(CN1C(=O)/C(=C/c2ccco2)SC1=S)Nc1ccc(C(=O)O)c(O)c1 | -0.625% (inactive) |
| O=C(O)CCN1C(=O)/C(=C\c2ccc(-c3nc4ccccc4s3)o2)SC1=S | 1.33% (inactive) |
| O=C1c2cccc3c(O)ccc(c23)C(=O)N1c1ccc(Cl)cc1 | -8.83% (inactive) |
| Nc1c(-c2ccccn2)cnn1-c1nc(-c2ccc(F)cc2)cs1 | -5.27% (inactive) |
| CSc1ccc(/C=N/Nc2cccc(C(=O)O)c2)cc1 | -13% (inactive) |
| O=C(NCCN1CCN(C(=O)c2cccs2)CC1)c1cccs1 | -5.34% (inactive) |
| O=C1/C(=C/c2ccco2)SC(=S)N1c1cccnc1 | -6.8% (inactive) |
| Cn1cc(C(=O)c2ccc(Cl)cc2Cl)cc1C(=O)N/N=C(\N)COc1ccccc1 | -7.82% (inactive) |
| O=C(NCC1CCCO1)c1cccc(S(=O)(=O)N(Cc2ccccc2)c2ccccc2)c1 (stereo unspecified) | -6.52% (inactive) |

| Compound | activity change, negative = cytotoxicity |
| --- | --- |
| CN(C)/C=N/c1nc2nccc(-c3ccc(Cl)cc3)n2n1 | -3.67% (inactive) |
| NC(=O)C1(N2CCCCC2)CCN(Cc2ccc(Br)cc2)CC1 | -2.98% (inactive) |
| O=C(NC1CCCCC1)c1cc([N+](=O)[O-])ccc1N1CCOCC1 | -0.855% (inactive) |
| Cc1ccc(C(=O)CCC(=O)Nc2ncccc2C)cc1 | -3.79% (inactive) |
| Cc1cc(=O)oc2cc(OCC(=O)N3CCN(Cc4ccc5c(c4)OCO5)CC3)ccc12 | -5.71% (inactive) |
| CCC1(c2ccccc2)NC(=O)N(CC(=O)Nc2ccc(OC)nc2)C1=O (stereo unspecified) | -1.91% (inactive) |
| CC[C@H](C)[C@H](NC(N)=O)C(=O)Nc1ccc(NC(C)=O)cc1 | 6.72% (inactive) |
| Cc1ccc(NS(=O)(=O)c2ccc(C(=O)NCCCN3CCCC3=O)cc2)cc1 | -5.92% (inactive) |
| C=CCn1c(C)cc(-c2csc(NC(=O)CCc3nc4ccccc4c(=O)[nH]3)n2)c1C | -6.5% (inactive) |
| Cn1cc(/C=C2\C(=O)NC(=O)N(c3ccccc3)C2=O)c2ccccc21 | -26.5% (inactive) |
| COC(=O)c1cc(N2CCN(C)CC2)nc2ccccc12 | -6.94% (inactive) |
| NC(=S)COc1ccccc1 | -7.95% (inactive) |
| Cc1ccc(C(CC(=O)N2CCCCC2)c2ccccc2)c(O)c1C (stereo unspecified) | -3.99% (inactive) |
| COc1cccc(NC(=S)N2CCN(C(c3ccccc3)c3ccccc3)CC2)c1 | -2.14% (inactive) |
| O=C(O)CC(C(=O)O)N1C(=O)/C(=C/C=C/c2ccco2)SC1=S (stereo unspecified) | -8.39% (inactive) |
| COc1cc2c(cc1OC)CN(C(=O)c1ccc(S(=O)(=O)N3CCCC3)cc1)CC2 | 1.87% (inactive) |
| COCCN(C(=O)CN1CCCc2ccccc21)c1c(N)n(Cc2ccccc2)c(=O)[nH]c1=O | 3.65% (inactive) |
| O=C(OCc1ccccc1)N1C=CC2CC1c1c(Cl)cccc12 (stereo unspecified) | -8.44% (inactive) |
| COc1ccc(NC(=O)Cc2nnc(SCC(=O)Nc3nccs3)n2C)cc1 | 5.46% (inactive) |
| COc1ccccc1CNC(=O)CCS(=O)(=O)c1cccs1 | 4.31% (inactive) |
